According to PMC5412920 (Journal of Clinical Pharmacology, 2016):
Where two headings read alike, the source gives them in different places.

How the values were obtained:
[1] = type: in vivo, human; conditions: hepatic impairment study; largely below the lower limit of quantification
MEK1 = conditions: cited from earlier work
[2] = type: in vivo, human; conditions: renal impairment study; largely below the lower limit of quantification

Cn1cnc2c(F)c(Nc3ccc(Br)cc3Cl)c(C(N)=O)cc21 [selumetinib amide]
plasma concentrations [1]: < 2 ng/mL | less active than selumetinib (MEK1): up to 50 fold | plasma concentrations [2]: < 2 ng/mL
